Paper PMC9814568, “Peptide transporter structure reveals binding and action mechanism of a potent PEPT1 and PEPT2 inhibitor” (Communications Chemistry, 2022)

Assays:
YePEPT [1] = molecular target: T1, YePEPT (Yersinia enterocolitica, UniProt A0A2R9TD79, K314A/S412A); assay: label-free DSF thermal shift at […] LZNV (no Kd); assay type: binding
T1 construct: gene YEP4_02370; YePEPT^K314A-S412A, detergent-purified, His-tagged

YePEPT [2] = molecular target: T2, YePEPT (Yersinia enterocolitica, UniProt A0A2R9TD79, K314Q/P315G); assay: label-free DSF thermal shift at […] LZNV (no Kd); assay type: binding
T2 construct: gene YEP4_02370; YePEPT^K314Q-P315G, detergent-purified, His-tagged

YePEPT [3] = molecular target: T3, YePEPT (Yersinia enterocolitica, UniProt A0A2R9TD79, K314A); assay: co-crystal structure at […] Å; also thermal shift; IC50 from [3H]Ala-Ala uptake in E. coli cells; assay type: cell-based
T3 construct: gene YEP4_02370; YePEPT-K314A, C-terminal HRV3C site and His10 tag (cleaved for crystallisation)
T3 sequence (A0A2R9TD79 1-511 K314A): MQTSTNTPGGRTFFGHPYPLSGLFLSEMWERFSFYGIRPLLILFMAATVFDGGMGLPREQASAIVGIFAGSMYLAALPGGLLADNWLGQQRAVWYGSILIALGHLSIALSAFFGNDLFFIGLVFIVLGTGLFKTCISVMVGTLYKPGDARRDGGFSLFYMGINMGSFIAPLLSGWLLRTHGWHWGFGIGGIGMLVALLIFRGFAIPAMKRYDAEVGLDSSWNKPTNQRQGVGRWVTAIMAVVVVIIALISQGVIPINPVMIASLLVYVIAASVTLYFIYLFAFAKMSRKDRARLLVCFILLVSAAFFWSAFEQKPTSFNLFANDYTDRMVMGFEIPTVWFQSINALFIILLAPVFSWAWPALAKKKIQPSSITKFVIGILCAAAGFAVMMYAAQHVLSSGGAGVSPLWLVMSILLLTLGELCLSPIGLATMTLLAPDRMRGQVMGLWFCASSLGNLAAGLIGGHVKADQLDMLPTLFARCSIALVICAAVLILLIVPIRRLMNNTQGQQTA

[4] = tested on: C[C@H](N)C(=O)N[C@@H](C)C(=O)O; assay: [3H]Ala-Ala uptake kinetics (Km) in E. coli cells overexpressing the transporter; assay type: cell-based, Yersinia enterocolitica

Compound | label-free DSF thermal shift at 200-800 μM LZNV (no Kd) (YePEPT [1]) | label-free DSF thermal shift at 200-800 μM LZNV (no Kd) (YePEPT [2]) | IC50 (YePEPT [3]) [µM] | Km [4] [µM]
CC(C)[C@H](NC(=O)[C@@H](N)CCCCNC(=O)OCc1ccc([N+](=O)[O-])cc1)C(=O)O [LZNV, Lys[Z(NO2)]-Val] | YePEPT^K314A-S412A still showed a strong dose-dependent stabilisation by LZNV | This variant shows a concentration-dependent stabilisation by LZNV similar to YePEPT^K314A | 7.6 | –
YePEPT (Yersinia enterocolitica subsp. palearctica YE-P4; K314A) | – | – | – | 57.3
